In patent publication US20220322803A1 (KONKUK UNIVERSITY INDUSTRIAL COOPERATION CORP, priority 2019, published 2022):

Experiments:
[1] = Perm of brown hair, hydrogen water vs hydrogen peroxide as second agent; conditions: 30 washes, hydrogen water 10 times at 2-minute intervals, hydrogen peroxide left 10 minutes
Experimental: According to the method used in a general beauty salon using a rod, cysteine treatment as a reduction agent, intermediate washing, setting, oxidation agent treatment, and measurement after washing were performed in the order. Brown hair was treated with a reduction agent (Hair 119 Clinic SuBoon Perm, Eson Chemical, Korea) and left at 37° C. for 5 minutes. […] Then the hair was separated. After washing them once, the length of perm hair was measured. After that, the perm hair length was measured when repeatedly washed 30 times, once a day (FIG. 3C). Natural Shampoo (Repit, Korea) was used as a cleaning agent. A method of preparing hydrogen water is as follows. After adding NaCl to distilled water to prepare a 0.05% NaCl solution, salted distilled water was boiled for about 5 minutes to remove dissolved oxygen as much as possible, and then quenched to 25° C. (water cooling).

[2] = Cold perm with 25°C electrolyzed water sprayed as second agent; conditions: hydrogen peroxide as second agent; basis of commercial suitability; hair 27 cm
[3] = Straight perm of curly hair; conditions: second agent (gel with 0.5% xanthan gum for the waters) oxidized 10 minutes
Experimental: The first agent used in straight perm was Standard of Hair […] Two Way Straight (UCL, Incheon). The second agent used in the perm was a mixture of Standard of Hair […] Two Way Straight (UCL, Incheon) and xanthan gum in each hydrogen water and electrolyzed water. Tap water was used to generate the used electrolyzed hydrogen water and electrolyzed water. […] To each of these, xanthan gum was added to 0.5% and mixed to form a gel. The perm process proceeded as follows. The first agent was applied to the hair and softened at 37° C. for 30 minutes. […] After the oxidation process was completed, the hair was washed, photographed, and measured.

split ends / hair surface (bleached, dyed hair after perm): had split ends
Compound: OO [hydrogen peroxide]
sagging of wave [1]: sagging was seen in 30 washes | length of the perm hair after washing once [2]: about 22 cm | result of straight perm treatment [3]: curly hair was well straightened | dye eluted (washing once after the perm treatment, from L value): 11.43%
